Measurements published in article PMC6356680, “Clerodane Diterpenes from the Marine Sponge Raspailia bouryesnaultae Collected in South Brazil” (Marine Drugs, 2019).
Like-named read-outs stand apart in the source and are kept apart here.

Assays:
in vitro [1] = format: cell-based; details: African green monkey (Vero) and human (A549), Vero cells (CC50) and A549 cells (IC50); CC50 Vero / IC50 A549; read-out: SI (selective index = CC50/IC50)
Protocol: (§1) Non-small cells of human lung cancer cells (A549; ATCC: CCL 195) and African Green monkey kidney fibroblasts (Vero; ATCC: CCL81) were grown in Eagle’s minimum essential medium (MEM; Cultilab, Campinas, Brazil) supplemented with 1% glutamine (Gibco, Carlsbad, CA, USA) and 10% fetal bovine serum (FBS; Gibco, Carlsbad, CA, USA), and maintained at 37 °C and 5% CO2 in a humidified atmosphere. The antiproliferative screening was performed by sulforhodamine B assay (SRB). In summary, A549 cells were seeded into 96-well plates (2.5 × 10^4 cells per well) and exposed to different concentrations of compounds 1–6 for 48 h. Paclitaxel (PAC, Sigma-Aldrich, St. Louis, MO, USA) was used as a positive control. After incubation, 10% trichloroacetic acid (TCA) was added to each well to fix the cells, and then the cells were washed and stained with SRB. […] The ratio between CC50 and IC50 values was calculated to obtain the selectivity index (SI) of each sample.

[2] = system: non-small cells of human lung cancer (A549); test: in vitro; format: cell-based; details: 48 h of treatment, sulforhodamine B assay, mean of three independent experiments, read-out: IC50 A549 Cell Line (Confidence Interval 95%)
Protocol: as §1

in vitro [3] = format: cell-based; details: African green monkey
Protocol: as §1
(§2) Firstly, the cytotoxicity of compounds 1–6 was determined by SRB assay as described above. HSV-1 (KOS and 29R strains, which are sensitive and resistant to acyclovir, respectively, Faculty of Pharmacy, University of Rennes I, Rennes, France) were propagated in the permissive Vero cells. Viral stocks were titrated as based on plaque-forming units (PFU), counted by plaque assay as previously described, and stored at −80 °C until used. To perform the anti-HSV-1 screening, the viral plaque number reduction assay was used as described previously by Boff et al.. Briefly, confluent Vero cell monolayers (2.5 × 10^5 cells per well) were infected with approximately 100 PFU of each virus strain for 1 h at 37 °C. Treatments were performed by adding non-cytotoxic concentrations of the compounds after viral infection (post-infection treatment). Cells were then washed with phosphate-buffered saline (PBS) and overlaid with MEM containing 1.5% carboxymethylcellulose (CMC; Sigma-Aldrich) in the presence or absence of different concentrations of the compounds and incubated for 48 h. Cells were fixed and stained with naphthol blue-black (Sigma-Aldrich), and viral plaques were counted by using a stereomicroscope. The results were presented as percentages of viral inhibition or by IC50 values, which are defined as the concentration of each sample that inhibited viral plaque formation by 50% (IC50) when compared to untreated controls. The ratio between CC50 and IC50 values was calculated to obtain the selectivity index (SI) of each sample. Acyclovir (ACV, Sigma-Aldrich) was used as a positive control for HSV-1 (KOS strain) and as a negative control for HSV-1 (29-R strain) replication.

HSV-1 (29R strain) = test: Viral plaque number reduction assay, HSV-1 29R strain; format: cell-based, Herpes Simplex Virus type 1; details: for inhibition at 100 µg/mL: tested concentration 100 µg/mL
Protocol: as §2

HSV-1 (KOS strain) = test: Viral plaque number reduction assay, HSV-1 KOS strain; format: cell-based, Herpes Simplex Virus type 1; details: for IC50: read-out: IC50 (KOS Strain)
Protocol: as §2

Vero cell line = test: in vitro; format: cell-based; details: African green monkey, 48 h
Protocol: as §1, §2

[4] = Human alphaherpesvirus 1, 48 h, acyclovir-resistant strain, read-out: % HSV-1 Inhibition ± SD, 29R Strain
[5] = Human alphaherpesvirus 1, 48 h, tested concentration 100 µg/mL, 48 h, post-infection treatment, read-out: % HSV-1 Inhibition ± SD, KOS Strain

SMILES | selectivity ratio at 48 h (in vitro [1]) | IC50 [2] | IC50 ([2]; Homo sapiens, A549, 48 h) | CC50 at 48 h (in vitro [3]) | inhibition at 100 µg/mL (HSV-1 (29R strain); [4]) | inhibition at 100 µg/mL (HSV-1 (KOS strain); [5]) | CC50 (Vero cell line) | IC50 (HSV-1 (29R strain); Human alphaherpesvirus 1, 48 h, concentration ± SD that inhibited 50% of viral replication, unit inferred) | inhibition at 100 µg/mL (HSV-1 (KOS strain); Human alphaherpesvirus 1, 48 h, read-out: % HSV-1 Inhibition ± SD, KOS Strain, tested concentration 100 µg/mL, 48 h, post-infection treatment) | IC50 (HSV-1 (KOS strain); Human alphaherpesvirus 1, 48 h) | % HSV-1 Inhibition ± SD, KOS Strain (HSV-1 (KOS strain); tested concentration 100 µg/mL, 48 h, post-infection treatment) | inhibition at 50 µg/mL (HSV-1 (29R strain); Human alphaherpesvirus 1, 48 h, tested concentration 50 µg/mL, acyclovir-resistant strain, read-out: % HSV-1 Inhibition ± SD, 29R Strain) | inhibition at 50 µg/mL (HSV-1 (KOS strain); Human alphaherpesvirus 1, 48 h, tested concentration 50 µg/mL, 48 h, post-infection treatment, read-out: % HSV-1 Inhibition ± SD, KOS Strain) | % HSV-1 Inhibition ± SD, KOS Strain (HSV-1 (KOS strain); tested concentration 50 µg/mL, 48 h, post-infection treatment) | inhibition at 25 µg/mL (HSV-1 (29R strain); Human alphaherpesvirus 1, 48 h, tested concentration 25 µg/mL, acyclovir-resistant strain, read-out: % HSV-1 Inhibition ± SD, 29R Strain) | inhibition at 25 µg/mL (HSV-1 (KOS strain); Human alphaherpesvirus 1, 48 h, tested concentration 25 µg/mL, 48 h, post-infection treatment, read-out: % HSV-1 Inhibition ± SD, KOS Strain)
C[C@H]1C[C@@H](O)[C@]23C(=CCC[C@@H]2[C@@]1(C)CCc1ccoc1)CO[C@H]3O [Compound 1, raspailol] | 6.14 | 24.1 µM | < 25 µM | 148 µM | 0% | 34.6 ± 7.36% | – | – | – | – | – | – | – | – | – | –
C=C1C(C)=CCC[C@@H]1[C@@](C)(CCc1ccoc1)[C@@H](C)CC(=O)OC [Compound 2, raspadiene] | > 2.49 | – | 100 µM | > 250 µM | 74% | – | > 250 µM | 74.9 ± 7.3 µM | 83% | 81.4 ± 9.82 µM | 83.41 ± 16.12% | – | – | – | – | –
CC1=CCC[C@H]2C1(C(=O)O)[C@H](O)C[C@H](C)[C@]2(C)CCc1ccoc1 (stereo partly drawn) [Compound 3, kerlinic acid] | 2.74 | – | 66.2 µM | 182 µM | 32 ± 6.12% | 24.4 ± 4.04% | – | – | – | – | – | – | – | – | – | –
COC(=O)[C@@]12C(C)=CCC[C@@H]1[C@@](C)(CCc1ccoc1)[C@@H](C)C[C@H]2O [Compound 4, kerlinic acid methyl ester] | 4.77 | 20.6 µM | < 25 µM | 98.4 µM | – | – | – | – | – | 52.4 ± 4.78 µM | – | 14.4 ± 5.46% | 50% | 50.23 ± 8.24% | – | –
CC1=CCC[C@@H]2[C@@](C)(CCc3ccoc3)[C@@H](C)CC[C@]12C [Compound 5, annonene] | > 1.74 | – | 144 µM | > 250 µM | 30.9 ± 9.07% | 15.2 ± 4.65% | – | – | – | – | – | – | – | – | – | –
CC1=CCC[C@@H]2[C@@](C)(CCc3ccoc3)[C@@H](C)C[C@@H](O)[C@]12C [Compound 6, 6-hydroxyannonene] | 1.66 | 24.5 µM | < 25 µM | 40.8 µM | – | – | – | – | – | – | – | – | – | – | 0% | 0%
